Some targets named below: PIK3CA(M1043I) (Homo sapiens, UniProt P42336, M1043I); SRPK2 (Homo sapiens, UniProt P78362); PLK3 (Homo sapiens, UniProt Q9H4B4); AKT1 (Homo sapiens, UniProt P31749).
Common to all, as to assay: biochemical
Common to all, as to parameters: DiscoveRx KINOMEscan active site-directed competition binding; percent of control kinase bound to immobilised ligand

The target in assay [1] is T1, ABL1(T315I)-nonphosphorylated (Homo sapiens, UniProt P00519, T315I).
T1 construct: nonphosphorylated

A further assay addresses T2, ITK (Homo sapiens, UniProt Q08881).
T2 sequence (Q08881 1-620): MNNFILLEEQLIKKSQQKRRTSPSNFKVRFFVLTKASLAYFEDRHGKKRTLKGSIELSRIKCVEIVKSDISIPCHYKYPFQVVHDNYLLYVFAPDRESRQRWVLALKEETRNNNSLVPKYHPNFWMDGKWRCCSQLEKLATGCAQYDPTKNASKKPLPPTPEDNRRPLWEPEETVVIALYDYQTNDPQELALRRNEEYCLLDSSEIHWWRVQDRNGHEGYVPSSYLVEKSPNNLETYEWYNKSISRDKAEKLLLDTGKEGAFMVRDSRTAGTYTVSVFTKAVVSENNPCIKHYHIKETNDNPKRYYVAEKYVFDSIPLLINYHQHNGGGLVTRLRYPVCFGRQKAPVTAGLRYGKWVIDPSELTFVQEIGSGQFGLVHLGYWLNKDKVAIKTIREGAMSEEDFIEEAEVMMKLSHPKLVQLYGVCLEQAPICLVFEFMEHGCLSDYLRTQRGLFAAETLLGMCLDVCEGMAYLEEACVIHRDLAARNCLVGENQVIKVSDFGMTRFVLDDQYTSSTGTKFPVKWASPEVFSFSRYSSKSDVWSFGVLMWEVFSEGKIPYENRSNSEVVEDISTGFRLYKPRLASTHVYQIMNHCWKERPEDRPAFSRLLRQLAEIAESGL

In another assay the target is T3, DYRK2 (Homo sapiens, UniProt Q92630).
T3 sequence (Q92630 1-601): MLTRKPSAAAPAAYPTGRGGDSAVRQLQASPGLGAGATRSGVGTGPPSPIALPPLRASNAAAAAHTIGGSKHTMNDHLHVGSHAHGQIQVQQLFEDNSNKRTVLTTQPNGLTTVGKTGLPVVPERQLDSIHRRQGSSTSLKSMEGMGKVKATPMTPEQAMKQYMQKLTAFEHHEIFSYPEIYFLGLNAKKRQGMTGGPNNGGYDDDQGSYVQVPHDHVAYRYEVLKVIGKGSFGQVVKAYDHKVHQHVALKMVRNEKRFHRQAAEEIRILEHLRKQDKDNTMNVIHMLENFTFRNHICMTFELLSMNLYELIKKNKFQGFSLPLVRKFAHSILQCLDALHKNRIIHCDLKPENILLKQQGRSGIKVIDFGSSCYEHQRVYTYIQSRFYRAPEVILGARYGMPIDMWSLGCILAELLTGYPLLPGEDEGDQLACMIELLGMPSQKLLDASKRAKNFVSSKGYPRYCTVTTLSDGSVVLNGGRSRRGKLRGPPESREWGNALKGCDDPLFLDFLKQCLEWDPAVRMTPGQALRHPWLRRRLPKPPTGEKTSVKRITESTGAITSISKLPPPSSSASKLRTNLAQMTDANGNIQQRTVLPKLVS

A further assay addresses T4, RIOK3 (Homo sapiens, UniProt O14730).
T4 sequence (O14730 1-519): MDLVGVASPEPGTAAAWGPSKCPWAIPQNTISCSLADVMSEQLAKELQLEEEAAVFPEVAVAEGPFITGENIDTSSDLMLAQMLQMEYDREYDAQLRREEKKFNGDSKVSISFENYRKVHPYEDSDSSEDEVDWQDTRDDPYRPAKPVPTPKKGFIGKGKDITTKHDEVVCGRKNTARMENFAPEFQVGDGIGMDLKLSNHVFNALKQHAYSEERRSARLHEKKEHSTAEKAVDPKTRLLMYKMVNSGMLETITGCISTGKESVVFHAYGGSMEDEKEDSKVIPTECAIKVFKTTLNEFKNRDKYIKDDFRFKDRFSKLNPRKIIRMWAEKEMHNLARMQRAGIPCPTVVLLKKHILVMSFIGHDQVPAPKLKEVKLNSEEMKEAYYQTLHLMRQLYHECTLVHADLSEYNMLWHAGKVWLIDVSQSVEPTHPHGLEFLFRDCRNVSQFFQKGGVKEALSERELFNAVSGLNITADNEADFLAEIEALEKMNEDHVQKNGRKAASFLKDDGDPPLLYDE

[2] abbreviates: read-out: Rucaparib / %Ctrl @ 10000nM, binding competition, % of control.
Where [3] appears, read: read-out: Talazoparib (BMN 673) / %Ctrl @ 10000nM.
Setting [4] is: read-out: Niraparib (MK-4827) / %Ctrl @ 10000nM.
[5] abbreviates: read-out: Olaparib / %Ctrl @ 10000nM.

Where two headings read alike, the source gives them in different places.

PLK3, sequence (Q9H4B4 whole entry): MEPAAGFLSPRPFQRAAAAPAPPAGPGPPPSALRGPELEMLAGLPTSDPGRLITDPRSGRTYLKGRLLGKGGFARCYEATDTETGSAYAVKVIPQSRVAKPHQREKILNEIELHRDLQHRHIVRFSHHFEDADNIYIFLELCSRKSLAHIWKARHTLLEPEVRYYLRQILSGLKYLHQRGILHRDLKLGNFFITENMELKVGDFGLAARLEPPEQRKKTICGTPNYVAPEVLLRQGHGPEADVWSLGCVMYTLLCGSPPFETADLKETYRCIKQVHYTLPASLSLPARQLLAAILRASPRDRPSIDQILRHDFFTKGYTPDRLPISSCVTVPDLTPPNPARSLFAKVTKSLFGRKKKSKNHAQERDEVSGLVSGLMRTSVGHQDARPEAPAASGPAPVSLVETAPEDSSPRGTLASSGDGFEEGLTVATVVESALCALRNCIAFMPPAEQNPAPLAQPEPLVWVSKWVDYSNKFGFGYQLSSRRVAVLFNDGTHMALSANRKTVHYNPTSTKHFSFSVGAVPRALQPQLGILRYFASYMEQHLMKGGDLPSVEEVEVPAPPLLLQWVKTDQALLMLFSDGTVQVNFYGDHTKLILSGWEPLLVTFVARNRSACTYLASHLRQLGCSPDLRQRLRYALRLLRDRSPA
AKT1, sequence (P31749 whole entry): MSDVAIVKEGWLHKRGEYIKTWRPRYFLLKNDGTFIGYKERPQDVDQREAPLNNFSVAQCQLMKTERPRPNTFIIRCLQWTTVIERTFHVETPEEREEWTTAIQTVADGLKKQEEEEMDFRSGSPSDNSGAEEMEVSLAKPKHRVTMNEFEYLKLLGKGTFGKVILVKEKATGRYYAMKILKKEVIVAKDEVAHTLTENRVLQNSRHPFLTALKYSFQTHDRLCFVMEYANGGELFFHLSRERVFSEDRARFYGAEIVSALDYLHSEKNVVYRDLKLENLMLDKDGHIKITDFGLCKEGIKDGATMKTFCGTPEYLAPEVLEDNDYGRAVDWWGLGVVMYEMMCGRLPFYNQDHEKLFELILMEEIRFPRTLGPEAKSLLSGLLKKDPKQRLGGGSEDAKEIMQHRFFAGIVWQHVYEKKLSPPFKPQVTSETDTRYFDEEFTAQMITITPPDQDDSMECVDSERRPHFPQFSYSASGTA
SRPK2, sequence (P78362 whole entry): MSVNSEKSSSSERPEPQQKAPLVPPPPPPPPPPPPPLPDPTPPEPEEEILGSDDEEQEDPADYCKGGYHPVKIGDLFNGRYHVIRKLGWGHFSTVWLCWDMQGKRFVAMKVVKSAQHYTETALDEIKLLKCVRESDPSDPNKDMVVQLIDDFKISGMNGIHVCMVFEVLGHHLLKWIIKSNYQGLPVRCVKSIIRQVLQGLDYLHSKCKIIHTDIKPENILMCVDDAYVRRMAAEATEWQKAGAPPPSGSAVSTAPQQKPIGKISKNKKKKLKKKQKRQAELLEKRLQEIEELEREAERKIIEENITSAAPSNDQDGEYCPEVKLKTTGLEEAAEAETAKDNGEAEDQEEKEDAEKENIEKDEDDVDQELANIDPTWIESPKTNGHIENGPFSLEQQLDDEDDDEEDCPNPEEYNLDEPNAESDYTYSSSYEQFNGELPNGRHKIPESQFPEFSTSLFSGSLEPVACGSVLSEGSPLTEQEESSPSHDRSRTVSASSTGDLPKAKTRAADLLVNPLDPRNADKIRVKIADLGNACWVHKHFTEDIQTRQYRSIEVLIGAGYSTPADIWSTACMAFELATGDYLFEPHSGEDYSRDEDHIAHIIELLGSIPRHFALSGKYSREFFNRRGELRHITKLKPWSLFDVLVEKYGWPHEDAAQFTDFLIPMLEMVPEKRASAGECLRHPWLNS
PIK3CA(M1043I), sequence (P42336 whole entry M1043I): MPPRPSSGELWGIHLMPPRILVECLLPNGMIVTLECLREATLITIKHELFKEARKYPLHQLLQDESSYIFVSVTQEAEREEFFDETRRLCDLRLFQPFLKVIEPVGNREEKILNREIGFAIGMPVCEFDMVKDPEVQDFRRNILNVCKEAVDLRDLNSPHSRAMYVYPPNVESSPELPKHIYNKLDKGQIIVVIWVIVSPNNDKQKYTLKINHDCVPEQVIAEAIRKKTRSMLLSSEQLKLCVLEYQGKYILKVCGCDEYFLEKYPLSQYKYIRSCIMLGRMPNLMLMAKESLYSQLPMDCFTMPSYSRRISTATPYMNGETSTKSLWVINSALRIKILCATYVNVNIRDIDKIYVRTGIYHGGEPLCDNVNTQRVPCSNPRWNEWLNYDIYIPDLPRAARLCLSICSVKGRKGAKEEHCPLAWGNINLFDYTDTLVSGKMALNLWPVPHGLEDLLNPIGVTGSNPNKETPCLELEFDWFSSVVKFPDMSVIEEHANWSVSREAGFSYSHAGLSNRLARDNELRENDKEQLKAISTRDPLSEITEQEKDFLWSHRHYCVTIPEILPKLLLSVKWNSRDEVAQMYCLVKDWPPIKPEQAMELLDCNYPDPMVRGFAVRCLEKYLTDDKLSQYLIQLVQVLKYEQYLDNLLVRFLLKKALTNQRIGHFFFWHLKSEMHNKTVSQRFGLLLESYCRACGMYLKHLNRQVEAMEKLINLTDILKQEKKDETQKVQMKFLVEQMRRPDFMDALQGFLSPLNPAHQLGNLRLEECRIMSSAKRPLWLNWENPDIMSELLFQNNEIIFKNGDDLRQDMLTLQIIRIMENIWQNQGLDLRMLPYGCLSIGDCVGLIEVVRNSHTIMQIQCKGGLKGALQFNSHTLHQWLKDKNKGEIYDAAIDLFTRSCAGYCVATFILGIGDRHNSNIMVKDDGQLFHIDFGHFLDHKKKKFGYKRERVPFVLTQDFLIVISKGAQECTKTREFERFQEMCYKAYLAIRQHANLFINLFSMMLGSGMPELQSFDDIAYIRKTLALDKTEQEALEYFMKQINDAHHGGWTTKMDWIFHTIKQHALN

Turning to `CNCc1ccc(-c2[nH]c3cc(F)cc4c3c2CCNC4=O)cc1` [Rucaparib], the percent of control binding at 10 µM in assay [1] (setting [2]) was 72%; on PIK3CA(M1043I) (setting [2]) it was 77%; on ITK (setting [2]) it was 100%; at SRPK2 (setting [2]), 68%; on DYRK2 (setting [2]), 38%; at PLK3 (setting [2]), 60%. In addition, the percent of control binding at 10 µM on AKT1 (setting [2]) was 91%; on RIOK3 (setting [2]) it was 85%.

As for `Cn1ncnc1[C@H]1c2n[nH]c(=O)c3cc(F)cc(c23)N[C@@H]1c1ccc(F)cc1` [Talazoparib], the percent of control binding at 10 µM in assay [1] (setting [3]) was 75%; at PIK3CA(M1043I) (setting [3]), 94%; at ITK (setting [3]) it was 84%; on SRPK2 (setting [3]), 100%; on DYRK2 (setting [3]), 86%; on PLK3 (setting [3]), 90%. The figures for the percent of control binding at 10 µM on AKT1 (setting [3]) and on RIOK3 (setting [3]) were 92% and 100%, respectively.

For `NC(=O)c1cccc2cn(-c3ccc([C@@H]4CCCNC4)cc3)nc12` [Niraparib], the percent of control binding at 10 µM was 90% in assay [1] (setting [4]); 90% at PIK3CA(M1043I) (setting [4]); 91% at ITK (setting [4]); 100% at SRPK2 (setting [4]); 54% on DYRK2 (setting [4]); 85% at PLK3 (setting [4]). Moreover, the percent of control binding at 10 µM was 99% at AKT1 (setting [4]) and 95% at RIOK3 (setting [4]).

`O=C(c1cc(Cc2n[nH]c(=O)c3ccccc23)ccc1F)N1CCN(C(=O)C2CC2)CC1` [Olaparib]: the percent of control binding at 10 µM in assay [1] (setting [5]) stood at 79%; at PIK3CA(M1043I) (setting [5]), 91%; on ITK (setting [5]) it was 100%; on SRPK2 (setting [5]), 86%; on DYRK2 (setting [5]) it was 99%; at PLK3 (setting [5]), 98%. Besides, the percent of control binding at 10 µM on AKT1 (setting [5]) and on RIOK3 (setting [5]) was 100% throughout.

The values are drawn from article PMC7026418, “The kinase polypharmacology landscape of clinical PARP inhibitors” (Scientific Reports, 2020).
